We go through one compound from patent publication US7048917B1, “Fat-binding polymers” (Genzyme Corporation, priority 1998, dated 2006).

In the assay the test system is Sprague Dawly rats. In words: Fat-Binding Evaluation via Paper Staining. It is filed as in vivo. Conditions: male rats, chow diet with 15 percent lard; lipase inhibitor (Orlistat) 0.04 percent by weight, no polymer; average of 24 experiments.

SMILES strings stand for the structures.

Description: The model consists of male, Sprague Dawly rats, 160 g, housed individually in wire mesh cages. They were acclimated to the facility for six days, during which time they were fed a chow based diet supplemented with 15 percent lard by weight. Feed and water were provided ad libitum. The animals were then randomly assigned to groups of four and fed test diets for three days. The test diet was also a chow based feed. A lipase inhibitor (Orlistat) was added at 0.04 percent by weight and the polymer was added at 0.30 percent by weight. They were mixed in the feed as a powder followed by the addition of the supplemented fat in the form of lard at 15 percent by weight. During the final 24 hours of the treatment period an 8.5″×11″ sheet of white paper was placed beneath each cage. One inch squares were drawn on the paper creating a grid of 80 squares. When oil in the form of unabsorbed dietary triglyceride seeps from the stool, it stains the paper. This can be readily discerned from urine if the papers were allowed to dry for six hours. The oil stains confer translucence to the paper. The squares that contain these oil stains were counted and expressed as a percentage of total area stained.

Regarding `CCCCCCCCCCC[C@@H](C[C@@H]1OC(=O)[C@H]1CCCCCC)OC(=O)[C@H](CC(C)C)NC=O` [Control 2, Orlistat], the “Percentage of Paper Stained” value was found to be 39 ± 6%.
